The subject of the assay is P388 leukemia ip, CD2F1 mice, survival T/C. The assay is described as follows: NCI In Vivo Anticancer Drug Screen. Data for tumor model P388 Leukemia (intraperitoneal) in CD2F1 (CDF1) mice. The settings on record: endpoint: median survival time, higher = longer survival. In a few lines:
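Mice carrying the transplanted tumor received test compound or vehicle. Survival was recorded in each group, and the value is the treated-group measurement divided by that of the vehicle-treated control group.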

The mark [1] stands for this setting: dose: 50.0 mg/kg/injection, schedule: Q01DX009 (ip), vehicle: saline with Tween-80.
[2] abbreviates: dose: 100.0 mg/kg/injection, schedule: Q01DX009 (ip), vehicle: saline with Tween-80.
Setting [3] is: dose: 200.0 mg/kg/injection, schedule: Q01DX009 (ip), vehicle: saline with Tween-80.
Where [4] appears, read: dose: 100.0 mg/kg/injection, schedule: Q04DX003 (ip), vehicle: saline with Tween-80.
The mark [5] stands for this setting: dose: 200.0 mg/kg/injection, schedule: Q04DX003 (ip), vehicle: saline with Tween-80.
The mark [6] stands for this setting: dose: 100.0 mg/kg/injection, schedule: Q04DX002 (ip), vehicle: saline with Tween-80.
The mark [7] stands for this setting: dose: 200.0 mg/kg/injection, schedule: Q04DX002 (ip), vehicle: saline with Tween-80.
[8] abbreviates: dose: 400.0 mg/kg/injection, schedule: Q04DX002 (ip), vehicle: saline with Tween-80.
The mark [9] stands for this setting: dose: 50.0 mg/kg/injection, schedule: Q01DX009 (ip), vehicle: Klucel (hydroxypropylcellulose) (HPC).
Where [10] appears, read: dose: 100.0 mg/kg/injection, schedule: Q01DX009 (ip), vehicle: Klucel (hydroxypropylcellulose) (HPC).
[11] abbreviates: dose: 200.0 mg/kg/injection, schedule: Q01DX009 (ip), vehicle: Klucel (hydroxypropylcellulose) (HPC).

“And” between values parts separate entries of the source, which are not always exact repeats. Equal entries are not always repeated. Inconclusive results and toxic doses are left out.

Drawing on PubChem BioAssay AID330 (DTP/NCI, 2004), this text covers T/C for 22 molecules.

Regarding `COC(=O)c1cc(=O)nc(NN=C2c3ccccc3-c3ccccc32)s1`, the T/C reads like this: (dose: 12.5 mg/kg/injection, schedule: Q01DX005 (ip), vehicle: saline with Tween-80) 97 % of control; (dose: 25.0 mg/kg/injection, schedule: Q01DX005 (ip), vehicle: saline with Tween-80) 94 % of control; (dose: 50.0 mg/kg/injection, schedule: Q01DX005 (ip), vehicle: saline with Tween-80) 88 % of control and 92 % of control.

For `C#CCOc1ccc(Cl)cc1C(=O)O`, the T/C by setting is: under setting [1], 105 % of control; under setting [2], 102 % of control; under setting [3], 97 % of control.

Turning to `O=C(O)CCCC(O)(O)C(=O)O`, the T/C reads like this: (dose: 50.0 mg/kg/injection, schedule: Q01DX005 (ip), vehicle: Klucel (hydroxypropylcellulose) (HPC)) 108 % of control; (dose: 100.0 mg/kg/injection, schedule: Q01DX005 (ip), vehicle: Klucel (hydroxypropylcellulose) (HPC)) 94 % of control; (dose: 200.0 mg/kg/injection, schedule: Q01DX005 (ip), vehicle: Klucel (hydroxypropylcellulose) (HPC)) 96 % of control.

As for `CC(C)(c1cc(Cl)c(OCCO)c(Cl)c1)c1cc(Cl)c(OCCO)c(Cl)c1`, the T/C is 100 % of control under setting [4]; 100 % of control under setting [5]; 95 % of control (dose: 400.0 mg/kg/injection, schedule: Q04DX003 (ip), vehicle: saline with Tween-80).

For `O=c1c(N=Nc2ccccc2Cl)c(O)n(-c2ccc(Br)cc2)c(=S)n1-c1ccccc1`, the T/C under setting [6] was 96 % of control, the T/C under setting [7] is 90 % of control and the T/C under setting [8] is 90 % of control.

In the case of `CCC(C)C(N)C(=O)O` (stereo not given), the T/C runs as follows: under setting [9], 109 % of control; under setting [10], 94 % of control; under setting [11], 105 % of control.

Consider `CS(=O)(=O)OCCN(CCOS(C)(=O)=O)c1ccccc1`, for which the T/C is 109 % of control (dose: 1.56 mg/kg/injection, schedule: Q04DX003 (ip), vehicle: saline); 104 % of control (dose: 3.13 mg/kg/injection, schedule: Q04DX003 (ip), vehicle: saline); 154 % of control (dose: 6.25 mg/kg/injection, schedule: Q01DX009 (ip), vehicle: saline with Tween-80); 122 % of control (dose: 6.25 mg/kg/injection, schedule: Q04DX003 (ip), vehicle: saline); 200 % of control (dose: 12.5 mg/kg/injection, schedule: Q01DX009 (ip), vehicle: saline with Tween-80); 181 % of control (dose: 25.0 mg/kg/injection, schedule: Q01DX009 (ip), vehicle: saline with Tween-80). Also, the T/C is 204 % of control (dose: 25.0 mg/kg/injection, schedule: Q01DX009 (ip), vehicle: saline); 204 % of control (dose: 25.0 mg/kg/injection, schedule: Q04DX003 (ip), vehicle: saline); 90 % of control (dose: 50.0 mg/kg/injection, schedule: Q01DX009 (ip), vehicle: saline).

For `COC(=O)/C=C1\C(=O)OC(C)(C)C1C` (stereo not given), the T/C runs as follows: under setting [9], 96 % of control; under setting [10], 98 % of control; under setting [11], 103 % of control.

On to `COC(=O)C(NC(=O)C(NC(=O)c1c2nc3c(C(=O)NC(C(=O)NC(C(=O)OC)C(C)C)C(C)O)ccc(C)c3oc-2c(C)c(=O)c1N)C(C)O)C(C)C` (stereo not given), for which the T/C runs as follows: (dose: 0.05 mg/kg/injection, schedule: Q01DX009 (ip), vehicle: water) 117 % of control; (dose: 0.1 mg/kg/injection, schedule: Q01DX009 (ip), vehicle: water) 101 % of control; (dose: 0.2 mg/kg/injection, schedule: Q01DX009 (ip), vehicle: water) 99 % of control; (dose: 0.4 mg/kg/injection, schedule: Q01DX009 (ip), vehicle: water) 100 % of control; (dose: 0.8 mg/kg/injection, schedule: Q01DX009 (ip), vehicle: water) 99 % of control; (dose: 1.6 mg/kg/injection, schedule: Q01DX009 (ip), vehicle: water) 102 % of control and 90 % of control. The T/C (dose: 3.2 mg/kg/injection, schedule: Q01DX009 (ip), vehicle: water) was 92 % of control; the T/C (dose: 6.4 mg/kg/injection, schedule: Q01DX009 (ip), vehicle: water) was 99 % of control; the T/C (dose: 12.8 mg/kg/injection, schedule: Q01DX009 (ip), vehicle: water) is 101 % of control.

Take `CN1C(=O)C(CC(=O)O)(Cc2ccccc2)N(C(=O)c2ccccc2)[C@H]1C(C)(C)C` (stereo not given in full): the T/C is 112 % of control (dose: 100.0 mg/kg/injection, schedule: Q01DX001 (ip), vehicle: saline with Tween-80); 94 % of control (dose: 200.0 mg/kg/injection, schedule: Q01DX001 (ip), vehicle: saline with Tween-80); 108 % of control (dose: 400.0 mg/kg/injection, schedule: Q01DX001 (ip), vehicle: saline with Tween-80).

Regarding `c1ccc2c3c(ccc2c1)OCCOc1ccc2ccccc2c1-3`, the T/C is 99 % of control under setting [6], 91 % of control under setting [7] and 90 % of control under setting [8].

With `Clc1cccc2c(SCCCCCCCSc3c4ccccc4nc4c(Cl)cccc34)c3ccccc3nc12`, the T/C (dose: 60.0 mg/kg/injection, schedule: Q01DX005 (ip), vehicle: Klucel (hydroxypropylcellulose) (HPC)) is 93 % of control; the T/C (dose: 120.0 mg/kg/injection, schedule: Q01DX005 (ip), vehicle: Klucel (hydroxypropylcellulose) (HPC)) is 91 % of control; the T/C (dose: 240.0 mg/kg/injection, schedule: Q01DX005 (ip), vehicle: Klucel (hydroxypropylcellulose) (HPC)) is 90 % of control.

With `COc1ccc(OC)c2c1C(=O)C=CC2=O`, the T/C (dose: 1.56 mg/kg/injection, schedule: Q01DX001 (ip), vehicle: saline) was 108 % of control; the T/C (dose: 3.13 mg/kg/injection, schedule: Q01DX001 (ip), vehicle: saline) was 110 % of control; the T/C (dose: 6.25 mg/kg/injection, schedule: Q01DX001 (ip), vehicle: saline) was 108 % of control.

On to `NNc1ccc(-n2ncc(C(N)=O)c2N)nn1`, for which the T/C is, setting by setting: (dose: 50.0 mg/kg/injection, schedule: Q01DX005 (ip), vehicle: other) 104 % of control; (dose: 100.0 mg/kg/injection, schedule: Q01DX005 (ip), vehicle: other) 107 % of control.

Turning to `CCCCCCCC(=O)Nc1cccc(C)c1C`, the T/C runs as follows: under setting [4], 90 % of control; under setting [5], 95 % of control.

For `O=[N+]([O-])OI(c1ccccc1)c1ccccc1`, the T/C was 100 % of control and 101 % of control (2×) (dose: 1.56 mg/kg/injection, schedule: Q01DX009 (ip), vehicle: saline); 101 % of control and 104 % of control (dose: 3.12 mg/kg/injection, schedule: Q01DX009 (ip), vehicle: saline).

In the case of `CC[N]1c2cc(C(C)(C)C)cc(C(C)(C)C)c2[O][Sb]1([c]1ccccc1)([c]1ccccc1)[c]1ccccc1`, the T/C was 98 % of control under setting [1], 100 % of control under setting [2] and 98 % of control under setting [3].

As for `C=CN1C(=O)N(C=C)C(C)(CC(C)C)C1=O` (stereo not given), the T/C by setting is: under setting [1], 100 % of control; under setting [2], 100 % of control; under setting [3], 112 % of control.

With `CCCCCCCCCC1OCN2CCCCC12` (stereo not given), the T/C (dose: 50.0 mg/kg/injection, schedule: Q01DX005 (ip), vehicle: saline) was 105 % of control; the T/C (dose: 100.0 mg/kg/injection, schedule: Q01DX005 (ip), vehicle: saline) was 96 % of control; the T/C (dose: 200.0 mg/kg/injection, schedule: Q01DX005 (ip), vehicle: saline) was 115 % of control.

On to `CCC1=C[C@@H]2C[C@](C(=O)OC)(c3cc4c(cc3OC)N(C)[C@H]3[C@@](O)(C(=O)NC)[C@H](OC(C)=O)[C@]5(CC)C=CCN6CC[C@]43[C@@H]65)c3[nH]c4ccccc4c3CCN(C1)[C@@H]2O`, for which the T/C runs as follows: (dose: 0.39 mg/kg/injection, schedule: Q01DX001 (ip), vehicle: water) 123 % of control; (dose: 1.56 mg/kg/injection, schedule: Q01DX001 (ip), vehicle: water) 151 % of control; (dose: 3.13 mg/kg/injection, schedule: Q01DX001 (ip), vehicle: water) 152 % of control and 158 % of control.

Turning to `Cn1ncc2c(N)ncnc21`, the T/C was 118 % of control under setting [1], 109 % of control under setting [4] and 123 % of control under setting [5].

For `CCN(CC)C(=S)Sc1nsc(SC(=S)N(CC)CC)c1C#N`, the T/C reads like this: under setting [1], 94 % of control; under setting [2], 94 % of control; under setting [3], 94 % of control.
